Conditions: Pendant drop shape

C/C=C(\C)C(=O)[O-].C[N+](C)(C)CCO
Conditions | surface tension liquid-gas [mN/m]
294 K | 31.6
303.9 K | 30.7
314.2 K | 30.7
323.9 K | 30.9
333.5 K | 30.2
338 K | 29.8
340.1 K | 29.9
346.2 K | 29.9
348.2 K | 28.5
357.4 K | 28
362.5 K | 28.2
373 K | 27.6
379.5 K | 26.1
391.8 K | 26.4

C[N+](C)(C)CCO.O=C([O-])CCC(=O)O [2-hydroxy-N,N,N-trimethylethanaminium 3-carboxypropanoate]
Conditions | surface tension liquid-gas [mN/m]
308.2 K | 40.7
313.9 K | 40.4
319.2 K | 40.1
324 K | 39.5
328.5 K | 39.5
333.6 K | 38.9
339.4 K | 38.4

CCC(=O)[O-].C[N+](C)(C)CCO [cholinium propanoate]
Conditions | surface tension liquid-gas [mN/m]
294 K | 34.6
302.6 K | 33.3
313.7 K | 32.6
324.1 K | 32.3
333.8 K | 31.7
343.4 K | 31.2
354.5 K | 30.9
373.4 K | 29.5
392.6 K | 28.6
